According to US20260315464A1, “COMPOSITIONS, METHODS, AND SYSTEMS FOR MODULATING SPLICING OF MSH3” (REVIR THERAPEUTICS, INC., priority 2023, published 2026):

Test system: MSH3
Assay: QPCR assay for levels of MSH3 upon compound treatment in HEK293T or AD293 cells (fold-change of MSH3 transcript, EC50 of MSH3 downregulation; total MSH3 exons 13/14, exons 20/21; Table 8)
Assay type: cell-based
Conditions: for mrna remaining at 1 µM / mrna remaining at 10 µM: Homo sapiens, fold-change of the MSH3 transcript, normalized to GAPDH; for mrna remaining at 1 µM: 1 μM compound; for mrna remaining at 10 µM: 10 μM compound; for EC50: EC50 of MSH3 downregulation, XtalPi
Method: HEK293T or AD293 cells were treated with Compound 274 at 1 μM and […]. RNA, cDNA and qPCR was prepared using TaqMan Cells-to-CT Express kit (ThermoFisher Scientific). Taqman assays (ThermoFisher Scientific) were used for quantification of total MSH3 exons 13/14 (cat #4351372, ID #: Hs00988993_ml), total MSH3 exons 20/21 (cat #4351372, ID #: Hs00989000_ml), exon 13/PE14A (Fwd: 5′-[…]; Rev: 5′-[…]; Probe: 5′-[…]) and exon 20/PE21A (Fwd: 5′-[…]; Rev: 5′-[…]; Probe: 5′-[…]) mRNA expression. Taqman GAPDH (cat #4448489, ID #: Hs02758991_g1) was used as a reference for data normalization.

With `COc1cc(OC2CC(C)(C)NC(C)(C)C2)nnc1N1Cc2ncc(-c3cn(C)nc3C)cc2C1=O` [Compound 203, 3-(1,3-dimethyl-1H-pyrazol-4-yl)-6-(4-methoxy-6-((2,2,6,6-tetramethylpiperidin-4-yl)oxy)pyridazin-3-yl)-6,7-dihydro-5H-pyrrolo[3,4-b]pyridin-5-one] the mrna remaining at 1 µM was 56% and the mrna remaining at 10 µM was 62%.

`CC(C)(O)Cn1cc(-c2cc3c(cn2)CN(c2ccc(OC4CC(C)(C)NC(C)(C)C4)nn2)C3=O)cn1` [Compound 21, 6-(1-(2-hydroxy-2-methylpropyl)-1H-pyrazol-4-yl)-2-(6-((2,2,6,6-tetramethylpiperidin-4-yl)oxy)pyridazin-3-yl)-2,3-dihydro-1H-pyrrolo[3,4-c]pyridin-1-one] was tested, and the mrna remaining at 1 µM was 54% and the mrna remaining at 10 µM was 58%.

In the case of `Cc1nn(C)nc1-c1cc(F)c2c(c1)C(=O)N(c1ccc(N3CCCNCC3)nn1)C2` [Compound 669, 2-(6-(1,4-diazepan-1-yl)pyridazin-3-yl)-6-(2,5-dimethyl-2H-1,2,3-triazol-4-yl)-4-fluoroisoindolin-1-one], the mrna remaining at 1 µM is reported as 97% and the mrna remaining at 10 µM is reported as 42%.

Molecule `CC1CCN(c2ccc(N3Cc4c(F)cc(-c5nn(C)nc5Cl)cc4C3=O)nn2)CCN1` (centres unmarked) [Compound 668, 6-(5-chloro-2-methyl-2H-1,2,3-triazol-4-yl)-4-fluoro-2-(6-(5-methyl-1,4-diazepan-1-yl)pyridazin-3-yl)isoindolin-1-one] has a mrna remaining at 1 µM of 103% and a mrna remaining at 10 µM of 13%.

`Cn1cc(-c2cc3c(cn2)CN(c2ccc(O[C@H]4C[C@]5(C)CC[C@](C)(C4)N5)nn2)C3=O)c(C(F)(F)F)n1` [Compound 74, 2-(6-(((1R,3s,5S)-1,5-dimethyl-8-azabicyclo[3.2.1]octan-3-yl)oxy)pyridazin-3-yl)-6-(1-methyl-3-(trifluoromethyl)-1H-pyrazol-4-yl)-2,3-dihydro-1H-pyrrolo[3,4-c]pyridin-1-one] showed a mrna remaining at 1 µM of 96% and a mrna remaining at 10 µM of 33%.

With `Cn1nc(Cl)c(-c2cc(F)c3c(c2)C(=O)N(c2ccc(N4CC[C@@H](NC(C)(C)C)C4)nn2)C3)n1` [Compound 656, (R)-2-(6-(3-(tert-butylamino)pyrrolidin-1-yl)pyridazin-3-yl)-6-(5-chloro-2-methyl-2H-1,2,3-triazol-4-yl)-4-fluoroisoindolin-1-one] the mrna remaining at 1 µM was 70% and the mrna remaining at 10 µM was 43%.

`CN(c1ccc(N2Cc3c(F)cc(-c4cnn(CC(C)(C)O)n4)cc3C2=O)nn1)C1CC(C)(C)NC(C)(C)C1` [Compound 633, 4-fluoro-6-(2-(2-hydroxy-2-methylpropyl)-2H-1,2,3-triazol-4-yl)-2-(6-(methyl(2,2,6,6-tetramethylpiperidin-4-yl)amino)pyridazin-3-yl)isoindolin-1-one] was tested, and the mrna remaining at 1 µM was 109% and the mrna remaining at 10 µM was 89%.

Work on `Cc1nn(C)nc1-c1cc(F)c2c(c1)C(=O)N(c1ccc(N3CCN[C@H](C(C)C)C3)nn1)C2` [Compound 640, (R)-6-(2,5-dimethyl-2H-1,2,3-triazol-4-yl)-4-fluoro-2-(6-(3-isopropylpiperazin-1-yl)pyridazin-3-yl)isoindolin-1-one] yielded a mrna remaining at 1 µM of 99% and a mrna remaining at 10 µM of 25%.

`Cc1nn(C)nc1-c1cnc2c(n1)C(=O)N(c1ccc(OC3CC(C)(C)NC4(CCC4)C3)nn1)C2` (centres unmarked) [Compound 500, 3-(2,5-dimethyl-2H-1,2,3-triazol-4-yl)-6-(6-((6,6-dimethyl-5-azaspiro[3.5]nonan-8-yl)oxy)pyridazin-3-yl)-6,7-dihydro-5H-pyrrolo[3,4-b]pyrazin-5-one] gave a mrna remaining at 1 µM of 101% and a mrna remaining at 10 µM of 22%.

Work on `Cc1nn(C)nc1-c1cnc2c(c1)C(=O)N(c1ccc(N(C)[C@H]3C[C@]4(C)CC[C@](C)(C3)N4)nn1)C2` [Compound 178, 3-(2,5-dimethyl-2H-1,2,3-triazol-4-yl)-6-(6-(((1R,3s,5S)-1,5-dimethyl-8-azabicyclo[3.2.1]octan-3-yl)(methyl)amino)pyridazin-3-yl)-6,7-dihydro-5H-pyrrolo[3,4-b]pyridin-5-one] yielded an EC50 of 425 nM, a mrna remaining at 1 µM of 10% and a mrna remaining at 10 µM of 5%.

Work on `Cn1ncc(-c2cc3c(cn2)CN(c2ccc(OC4CCC(C)(C)NC(C)(C)C4)nn2)C3=O)n1` (centres unmarked) [Compound 465, 6-(2-methyl-2H-1,2,3-triazol-4-yl)-2-(6-((2,2,7,7-tetramethylazepan-4-yl)oxy)pyridazin-3-yl)-2,3-dihydro-1H-pyrrolo[3,4-c]pyridin-1-one] yielded a mrna remaining at 1 µM of 93% and a mrna remaining at 10 µM of 115%.

Work on `Cn1nc(Cl)c(-c2cc(C#N)c3c(c2)C(=O)N(c2ccc(OC4CC(C)(C)NC(C)(C)C4)nn2)C3)n1` [Compound 680, 6-(5-chloro-2-methyl-2H-1,2,3-triazol-4-yl)-1-oxo-2-(6-((2,2,6,6-tetramethylpiperidin-4-yl)oxy)pyridazin-3-yl)isoindoline-4-carbonitrile] yielded a mrna remaining at 1 µM of 94% and a mrna remaining at 10 µM of 31%.

`Cn1nc(Cl)c(-c2cnc3c(c2)C(=O)N(c2ccc(O[C@H]4C[C@]5(C)CC[C@](C)(C4)N5)nn2)C3)n1` [Compound 480, 3-(5-chloro-2-methyl-2H-1,2,3-triazol-4-yl)-6-(6-(((1R,3s,5S)-1,5-dimethyl-8-azabicyclo[3.2.1]octan-3-yl)oxy)pyridazin-3-yl)-6,7-dihydro-5H-pyrrolo[3,4-b]pyridin-5-one] gave an EC50 of 363 nM, a mrna remaining at 1 µM of 15% and a mrna remaining at 10 µM of 10%.

`Cc1nn(C)nc1-c1cc(F)c2c(c1)C(=O)N(c1ccc(OC3CC(C)(C)NC(C)(C)C3)nn1)C2` [Compound 282, 6-(2,5-dimethyl-2H-1,2,3-triazol-4-yl)-4-fluoro-2-(6-((2,2,6,6-tetramethylpiperidin-4-yl)oxy)pyridazin-3-yl)isoindolin-1-one] showed a mrna remaining at 1 µM of 30% and a mrna remaining at 10 µM of 59%.

`CN(c1ccc(N2Cc3ncc(-c4nn(C)nc4Cl)nc3C2=O)nn1)C1CC(C)(C)NC2(CCC2)C1` (centres unmarked) [Compound 626, 3-(5-chloro-2-methyl-2H-1,2,3-triazol-4-yl)-6-(6-((6,6-dimethyl-5-azaspiro[3.5]nonan-8-yl)(methyl)amino)pyridazin-3-yl)-6,7-dihydro-5H-pyrrolo[3,4-b]pyrazin-5-one] was tested, and the mrna remaining at 1 µM was 98% and the mrna remaining at 10 µM was 28%.

In the case of `Cc1nn(C)nc1-c1cc(Cl)c2c(c1)C(=O)N(c1ccc(O[C@H]3C[C@]4(C)CC[C@](C)(C3)N4)nn1)C2` [Compound 661, 4-chloro-6-(2,5-dimethyl-2H-1,2,3-triazol-4-yl)-2-(6-(((1R,3s,5S)-1,5-dimethyl-8-azabicyclo[3.2.1]octan-3-yl)oxy)pyridazin-3-yl)isoindolin-1-one], the mrna remaining at 1 µM is reported as 155% and the mrna remaining at 10 µM is reported as 33%.

Work on `Cc1nc(C)c(-c2cc3c(cn2)CN(c2ccc(O[C@H]4C[C@]5(C)CC[C@](C)(C4)N5)nn2)C3=O)s1` [Compound 69, 2-(6-(((1R,3s,5S)-1,5-dimethyl-8-azabicyclo[3.2.1]octan-3-yl)oxy)pyridazin-3-yl)-6-(2,4-dimethylthiazol-5-yl)-2,3-dihydro-1H-pyrrolo[3,4-c]pyridin-1-one] yielded an EC50 of 885 nM, a mrna remaining at 1 µM of 30% and a mrna remaining at 10 µM of 11%.

Molecule `Cc1nn(C)cc1-c1cc(F)c2c(c1)C(=O)N(c1ccc(O[C@H]3C[C@]4(C)CC[C@](C)(C3)N4)nn1)C2` [Compound 278, 6-(1,3-dimethyl-1H-pyrazol-4-yl)-2-(6-(((1R,3s,5S)-1,5-dimethyl-8-azabicyclo[3.2.1]octan-3-yl)oxy)pyridazin-3-yl)-4-fluoroisoindolin-1-one] has a mrna remaining at 1 µM of 64% and a mrna remaining at 10 µM of 14%.

`Cc1nn(C)nc1-c1cc(F)c2c(c1)C(=O)N(c1ccc(N3CCNC4(CC4)C3)nn1)C2` [Compound 650, 2-(6-(4,7-diazaspiro[2.5]octan-7-yl)pyridazin-3-yl)-6-(2,5-dimethyl-2H-1,2,3-triazol-4-yl)-4-fluoroisoindolin-1-one] gave a mrna remaining at 1 µM of 97% and a mrna remaining at 10 µM of 75%.

`CN(c1ncc(N2Cc3ccc(-c4cnn(C)n4)cc3C2=O)nn1)C1CC(C)(C)NC(C)(C)C1` [Compound 420, 2-(3-(methyl(2,2,6,6-tetramethylpiperidin-4-yl)amino)-1,2,4-triazin-6-yl)-6-(2-methyl-2H-1,2,3-triazol-4-yl)isoindolin-1-one] was tested, and the mrna remaining at 1 µM was 74% and the mrna remaining at 10 µM was 73%.

Work on `Cn1nc(Cl)c(-c2cnc3c(c2)C(=O)N(c2ccc(S[C@H]4C[C@]5(C)CC[C@](C)(C4)N5)nn2)C3)n1` [Compound 610, 3-(5-chloro-2-methyl-2H-1,2,3-triazol-4-yl)-6-(6-(((1R,3s,5S)-1,5-dimethyl-8-azabicyclo[3.2.1]octan-3-yl)thio)pyridazin-3-yl)-6,7-dihydro-5H-pyrrolo[3,4-b]pyridin-5-one] yielded a mrna remaining at 1 µM of 93% and a mrna remaining at 10 µM of 66%.

`Cc1nn(C)nc1-c1cnc2c(c1)C(=O)N(c1ccc(N3CC4CNC4C3)nn1)C2` (centres unmarked) [Compound 559, 6-(6-(3,6-diazabicyclo[3.2.0]heptan-3-yl)pyridazin-3-yl)-3-(2,5-dimethyl-2H-1,2,3-triazol-4-yl)-6,7-dihydro-5H-pyrrolo[3,4-b]pyridin-5-one] showed a mrna remaining at 1 µM of 93% and a mrna remaining at 10 µM of 53%.

`CC[C@]12CC[C@](CC)(C[C@@H](Oc3ccc(N4Cc5ncc(-c6cn(C)nc6C)cc5C4=O)nn3)C1)N2` [Compound 239, 6-(6-(((1R,3s,5S)-1,5-diethyl-8-azabicyclo[3.2.1]octan-3-yl)oxy)pyridazin-3-yl)-3-(1,3-dimethyl-1H-pyrazol-4-yl)-6,7-dihydro-5H-pyrrolo[3,4-b]pyridin-5-one] was tested, and the EC50 was 2040 nM, the mrna remaining at 1 µM was 84% and the mrna remaining at 10 µM was 19%.
